Each structure is given as a SMILES string.

From patent publication US11884647B2, “Compounds and methods for targeting pathogenic blood vessels” (THE REGENTS OF THE UNIVERSITY OF CALIFORNIA, priority 2019, dated 2024) come the findings set out here.

The subject of this assay is tumor endothelial cells (LL/2 lung cancer tumor). The assay is described as follows: Lung LL2 ex vivo model of tumor angiogenesis. The class given is cell-based, mouse. The conditions noted are these: for Cell death: drug treatment two days. The essentials: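 Read-out is live/dead fluorescence imaging (fluorescein diacetate green, propidium iodide red, 10 min at 37° C) at 2×, taken e.g. 48 h after drug addition. Fragments of mouse LL2 tumor are cultured in Matrigel with endothelial growth medium, usually 4 days, until new endothelial cells grow out, then treated.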

[1] abbreviates: Mus musculus, Endothelial cell, 48 h, read-out: Cell death.

`CCCCOc1ccc(S(=O)(=O)c2cnc3ccc(SC)cc3c2N2CCCN(C3COC3)CC2)cc1` [compound 355, 3-((4-butoxyphenyl)sulfonyl)-6-(methylthio)-4-(4-(oxetan-3-yl)-1,4-diazepan-1-yl)quinoline] yielded a Cell death (Lung LL2 ex vivo, Conc. 40 μm) of 0%.

Regarding `CCCCCCCCCCCCCCOc1ccc(S(=O)(=O)c2cnc3ccc([S+](C)[O-])cc3c2N2CCC(N3CCC(N4CCN(CCO)CC4)CC3)CC2)cc1` (stereo not shown) [compound 345, 2-(4-(1′-(6-(methylsulfinyl)-3-((4-(tetradecyloxy)phenyl)sulfonyl)quinolin-4-yl)-[1,4′-bipiperidin]-4-yl)piperazin-1-yl)ethan-1-ol], the cytotoxicity at 20 µM under setting [1] stood at 50%.

Regarding `CCCCCCCCCCCCCCOc1ccc(S(=O)(=O)c2cnc3ccc([S+](C)[O-])cc3c2N2CCC(N3CCN(CCO)CC3)CC2)cc1F` (stereo not shown) [compound 365, 2-(4-(1-(3-((3-fluoro-4-(tetradecyloxy)phenyl)sulfonyl)-6-(methylsulfinyl)quinolin-4-yl)piperidin-4-yl)piperazin-1-yl)ethanol], under setting [1], the cytotoxicity at 20 µM amounted to 20%.

As to `CCCCCCCCCCCCOc1ccc(S(=O)(=O)c2cnc3ccc([S+](C)[O-])cc3c2N2CCC(N3CCN(CCO)CC3)CC2)cc1F` (stereo not shown) [compound 362, 2-(4-(1-(3-((4-(dodecyloxy)-3-fluorophenyl)sulfonyl)-6-(methylsulfinyl)quinolin-4-yl)piperidin-4-yl)piperazin-1-yl)ethanol], the cytotoxicity at 20 µM under setting [1] worked out at 20%.

For `COc1ccc(S(=O)(=O)c2cnc3cc(OC)c(OC)cc3c2N2CCC(N3CCCCC3)CC2)cc1` [compound 320, 4-([1,4′-bipiperidin]-1′-yl)-6,7-dimethoxy-3-((4-methoxyphenyl)sulfonyl)quinoline], under setting [1], the cytotoxicity at 40 µM came to 30%.

For `COc1ccc(S(=O)(=O)c2cnc3ccc([S+](C)[O-])cc3c2NN2CCN(C)CC2)cc1` (stereo not shown) [compound 227, 3-((4-methoxyphenyl)sulfonyl)-N-(4-methylpiperazin-1-yl)-6-(methylsulfinyl)quinolin-4-amine], the cytotoxicity at 40 µM under setting [1] was determined as 10%.

`CCCCOc1ccc(S(=O)(=O)c2cnc3ccc(SC)cc3c2N2CCC(N3CCCC3CO)CC2)cc1` (stereo not shown) [compound 350, (1-(1-(3-((4-butoxyphenyl)sulfonyl)-6-(methylthio)quinolin-4-yl)piperidin-4-yl)pyrrolidin-2-yl)methanol]: the Cell death (Lung LL2 ex vivo, Conc. 40 μm) is 20%.

Regarding `CCCCOc1ccc(S(=O)(=O)c2cnc3ccc(SC)cc3c2N2CCC(N3CCOCC3)CC2)cc1` [compound 229, 4-(1-(3-((4-butoxyphenyl)sulfonyl)-6-(methylthio)quinolin-4-yl)piperidin-4-yl)morpholine], under setting [1], the cytotoxicity at 40 µM was 30%.

For the compound `CCCCCCCCCCOc1ccc(S(=O)(=O)c2cnc3ccc([S+](C)[O-])cc3c2N2CCC(N3CCCC(O)C3)CC2)cc1` (stereo not shown) [compound 265, 1′-(3-((4-(decyloxy)phenyl)sulfonyl)-6-(methylsulfinyl)quinolin-4-yl)-[1,4′-bipiperidin]-3-ol], the cytotoxicity at 10 µM under setting [1] was found to be 20%.

As to `CCc1ccc(S(=O)(=O)c2cnc3ccc(OC(F)(F)F)cc3c2-n2cccn2)cc1` [compound 109, 3-((4-ethylphenyl)sulfonyl)-4-(1H-pyrazol-1-yl)-6-(trifluoromethoxy)quinoline], the cytotoxicity at 20 µM under setting [1] came out at 0%.

For the compound `CCCCCCCCCCCCCCCCOc1ccc(S(=O)(=O)c2cnc3ccc([S+](C)[O-])cc3c2N2CCC(N3CCC(N4CCCC(O)C4)CC3)CC2)cc1` (stereo not shown) [compound 378, 1″-(3-((4-(hexadecyloxy)phenyl)sulfonyl)-6-(methylsulfinyl)quinolin-4-yl)-[1,4′:1′,4″- terpiperidin]-3-ol], under setting [1], the cytotoxicity at 20 µM worked out at 30%.

As for `CCCCCCCCCCCCOc1ccc(S(=O)(=O)c2cnc3ccc([S+](C)[O-])cc3c2N2CCC(N3CCC(N4CCCCC4)CC3)CC2)cc1F` (stereo not shown) [compound 363, 4-([1,4′:1′,4″-terpiperidin]-1″-yl)-3-((4-(dodecyloxy)-3-fluorophenyl)sulfonyl)-6-(methylsulfinyl)quinoline], the cytotoxicity at 20 µM under setting [1] was 30%.

`CCOC(=O)c1ccc(N2CCN(c3c(S(=O)(=O)c4ccc(OC)cc4)cnc4cc(OC)c(OC)cc34)CC2)cc1` [compound 317, ethyl 4-(4-(6,7-dimethoxy-3-((4-methoxyphenyl)sulfonyl)quinolin-4-yl)piperazin-1-yl)benzoate]: the cytotoxicity at 40 µM under setting [1] was 30%.

In the case of `CCCCOc1ccc(S(=O)(=O)c2cnc3ccc([S+](C)[O-])cc3c2N2CCC(N3CCCCC3)CC2)cc1` (stereo not shown) [compound 167, 4-([1,4′-bipiperidin]-1′-yl)-3-((4-butoxyphenyl)sulfonyl)-6-(methylsulfinyl)quinoline], under setting [1], the cytotoxicity at 20 µM was determined as 40%.

As for `COc1ccc(S(=O)(=O)c2cnc3cc(OC)c(OC)cc3c2N2CCC(N3CCCC3=O)CC2)cc1` [compound 321, 1-(1-(6,7-dimethoxy-3-((4-methoxyphenyl)sulfonyl)quinolin-4-yl)piperidin-4-yl)pyrrolidin-2-one], the cytotoxicity at 40 µM under setting [1] worked out at 40%.

As to `CCCCCCCOc1ccc(S(=O)(=O)c2cnc3ccc(SC)cc3c2N2CCC(N3CCC(O)CC3)CC2)cc1` [compound 223, 1′-(3-((4-(heptyloxy)phenyl)sulfonyl)-6-(methylthio)quinolin-4-yl)-[1,4′-bipiperidin]-4-ol], the “Cell death (rim)” value (Lung LL2 ex vivo, Conc. 40 μm, (rim)) came out at 30%.

Consider `CCCCCCCOc1ccc(S(=O)(=O)c2cnc3ccc([S+](C)[O-])cc3c2N2CCN(CCN3CCCC3)CC2)cc1` (stereo not shown) [compound 276, 3-((4-(heptyloxy)phenyl)sulfonyl)-6-(methylsulfinyl)-4-(4-(2-(pyrrolidin-1-yl)ethyl)piperazin-1-yl)quinoline], for which, under setting [1], the cytotoxicity at 20 µM came to 100%.

Regarding `CCCCCCCCCCOc1ccc(S(=O)(=O)c2cnc3ccc([S+](C)[O-])cc3c2N2CCC(N3CCC(N4CCCCC4)CC3)CC2)cc1F` (stereo not shown) [compound 290, ([1,4′:1′,4″-terpiperidin]-1″-yl)-3-((4-(decyloxy)-3-fluorophenyl)sulfonyl)-6-(methylsulfinyl)quinoline], for the setting “Lung LL2 ex vivo, Conc. 10 μm”, the “48 hrs (morphology observations after 48 hours)” value is “*** (100% of endothelial cells vesicularize in cell shape)” and the Cell death was 50%.

As for `CCCCCCCOc1ccc(S(=O)(=O)c2cnc3ccc(SC)cc3c2N2CCN(C3CCN(C)CC3)CC2)cc1` [compound 273, 3-((4-(heptyloxy)phenyl)sulfonyl)-4-(4-(1-methylpiperidin-4-yl)piperazin-1-yl)-6-(methylthio)quinoline], the Cell death (Lung LL2 ex vivo, Conc. 20 μm) is listed as 60%.

As for `CNC(=O)c1ccc(C2CCN(c3c(S(=O)(=O)c4ccc(OC)cc4)cnc4cc(OC)c(OC)cc34)CC2)cc1` [compound 310, 4-(1-(6,7-dimethoxy-3-((4-methoxyphenyl)sulfonyl)quinolin-4-yl)piperidin-4-yl)-N-methylbenzamide], under setting [1], the cytotoxicity at 40 µM amounted to 10%.

For the compound `CNC(=O)c1ccc2ncc(S(=O)(=O)c3ccc(OC)cc3)c(NC)c2c1` [compound 360, 3-((4-methoxyphenyl)sulfonyl)-N-methyl-4-(methylamino)quinoline-6-carboxamide], under “Lung LL2 ex vivo, Conc. 40 μm”, the Cell death was 20%.

`CCCCCCCCCCCCCCOc1ccc(S(=O)(=O)c2cnc3ccc([S](C)[O])cc3c2N2CCC(N3CCC(N4CCCC(O)C4)CC3)CC2)cc1` (stereo not shown) [compound 348, 1″-(6-(methyl(λ^1-oxidanyl)-λ^3-sulfanyl)-3-((4-(tetradecyloxy)phenyl)sulfonyl)quinolin-4-yl)-[1,4′:1′,4″-terpiperidin]-3-ol]: under “Lung LL2 ex vivo, Conc. 20 μm”, the “48 hrs (morphology observations after 48 hours)” value is given as “* (50% or less of cells vesicularize in cell shape)” and the Cell death is 20%.

For the compound `CCCCCCCCCCCCCCOc1ccc(S(=O)(=O)c2cnc3ccc([S+](C)[O-])cc3c2N2CCC(N3CCC(N4CCC(O)CC4)CC3)CC2)cc1` (stereo not shown) [compound 375, 1″-(6-(methylsulfinyl)-3-((4-(tetradecyloxy)phenyl)sulfonyl)quinolin-4-yl)-[1,4′:1′,4″-terpiperidin]-4-ol], the cytotoxicity at 20 µM under setting [1] is 50%.

Consider `CCCCCCCCCCCCCCOc1ccc(S(=O)(=O)c2cnc3ccc([S+](C)[O-])cc3c2N2CCC(N3CCC(N4CCCC(O)C4)CC3)CC2)cc1F` (stereo not shown) [compound 367, 1″-(3-((3-fluoro-4-(tetradecyloxy)phenyl)sulfonyl)-6-(methylsulfinyl)quinolin-4-yl)-[1,4′:1′,4″- terpiperidin]-3-ol], for which, under setting [1], the cytotoxicity at 20 µM was 5%.

With `CCCCOc1ccc(S(=O)(=O)c2cnc3ccc(OC(F)(F)F)cc3c2N2CCSCC2)cc1` [compound 187, 4-(3-((4-butoxyphenyl)sulfonyl)-6-(trifluoromethoxy)quinolin-4-yl)thiomorpholine], under setting [1], the cytotoxicity at 40 µM was 30%.

On to `CCCCOc1ccc(S(=O)(=O)c2cnc3ccc([S+](C)[O-])cc3c2N2CCC(N3CCC(N4CCCCC4)CC3)CC2)cc1` (stereo not shown) [compound 237, 4-([1,4′:1′,4″-terpiperidin]-1″-yl)-3-((4-butoxyphenyl)sulfonyl)-6-(methylsulfinyl)quinoline], for which the cytotoxicity at 40 µM under setting [1] was determined as 100%.

With `COc1ccc(S(=O)(=O)c2cnc3cc(OC)c(OC)cc3c2N2CCCN(C3CCS(=O)(=O)CC3)CC2)cc1` [compound 330, 4-(4-(6,7-dimethoxy-3-((4-methoxyphenyl)sulfonyl)quinolin-4-yl)-1,4-diazepan-1-yl)tetrahydro-2H-thiopyran 1,1-dioxide], the cytotoxicity at 40 µM under setting [1] was determined as 50%.

Consider `CCCCOc1ccc(S(=O)(=O)c2cnc3ccc(SC)cc3c2N2CCC3C(COCCN3CC(C)C)C2)cc1` (stereo not shown) [compound 352, 7-(3-((4-butoxyphenyl)sulfonyl)-6-(methylthio)quinolin-4-yl)-1-isobutyldecahydropyrido[4,3-e][1,4]oxazepine], for which the Cell death (Lung LL2 ex vivo, Conc. 40 μm) turned out to be 100%.

Turning to `CCN(CC)CCN(CC)c1c(S(=O)(=O)c2ccc(OC)cc2)cnc2cc(OC)c(OC)cc12` [compound 296, N1-(6,7-dimethoxy-3-((4-methoxyphenyl)sulfonyl)quinolin-4-yl)-N1,N2,N2-triethylethane-1,2-diamine], under setting [1], the cytotoxicity at 40 µM is 20%.
